Experiments:
Type in all cases: binding
[1] = biological target: T1, GAPA1 (chloroplastic glyceraldehyde 3-phosphate dehydrogenase A1) (Arabidopsis thaliana, UniProt P25856); experiment: SPR (Biacore […]), 3-AESA immobilised via its amino group on CM5 chip, […] Langmuir fit
T1 sequence (P25856 60-396): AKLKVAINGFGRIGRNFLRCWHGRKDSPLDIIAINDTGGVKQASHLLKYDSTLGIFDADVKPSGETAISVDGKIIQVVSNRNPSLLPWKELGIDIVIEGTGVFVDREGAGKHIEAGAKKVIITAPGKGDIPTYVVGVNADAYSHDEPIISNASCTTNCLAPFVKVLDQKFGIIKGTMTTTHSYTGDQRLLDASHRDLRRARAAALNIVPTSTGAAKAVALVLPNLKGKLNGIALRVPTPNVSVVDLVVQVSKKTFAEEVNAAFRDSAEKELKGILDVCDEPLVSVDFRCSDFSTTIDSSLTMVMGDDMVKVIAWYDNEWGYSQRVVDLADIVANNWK

[2] = biological target: GAPA1 (chloroplastic glyceraldehyde 3-phosphate dehydrogenase A1) (Arabidopsis thaliana, UniProt P25856, N94G); experiment: SPR on immobilised 3-AESA, […] protein; response diminished by […] versus WT
Sequence of GAPA1 (chloroplastic glyceraldehyde 3-phosphate dehydrogenase A1) (Arabidopsis thaliana, UniProt P25856, N94G) (P25856 60-396 N94G): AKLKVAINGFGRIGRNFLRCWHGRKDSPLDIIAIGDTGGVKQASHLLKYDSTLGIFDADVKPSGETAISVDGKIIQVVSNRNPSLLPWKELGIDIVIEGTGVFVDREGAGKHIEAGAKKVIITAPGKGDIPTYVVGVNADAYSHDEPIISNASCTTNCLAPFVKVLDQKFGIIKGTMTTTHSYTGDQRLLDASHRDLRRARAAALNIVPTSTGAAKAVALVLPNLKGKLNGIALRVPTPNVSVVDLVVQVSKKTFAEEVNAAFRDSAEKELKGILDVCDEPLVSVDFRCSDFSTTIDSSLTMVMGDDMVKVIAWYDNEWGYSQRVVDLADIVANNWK

[3] = biological target: GAPA1 (chloroplastic glyceraldehyde 3-phosphate dehydrogenase A1) (Arabidopsis thaliana, UniProt P25856, W378L); experiment: SPR on immobilised 3-AESA
Sequence of GAPA1 (chloroplastic glyceraldehyde 3-phosphate dehydrogenase A1) (Arabidopsis thaliana, UniProt P25856, W378L) (P25856 60-396 W378L): as the sequence (P25856 60-396 N94G) above, with G35N, W319L counted along it

[4] = biological target: T1, GAPA1 (chloroplastic glyceraldehyde 3-phosphate dehydrogenase A1); experiment: SPR competition with immobilised 3-AESA (competition seen from […] NADH)
[5] = biological target: T1, GAPA1 (chloroplastic glyceraldehyde 3-phosphate dehydrogenase A1); experiment: SPR competition with immobilised 3-AESA; also inhibits GAPDH activity of purified GAPA1 ([…] at […])

NCCc1cccc(C(=O)O)c1O [3-AESA, 3-aminoethyl salicylic acid]
Kd [1]: 0.0167 ± 0.0057 µM
SPR on immobilised 3-AESA, 50 nM protein; response diminished by 66% versus WT [2]: No complete loss of ability to bind 3-AESA was observed in these mutated proteins.
SPR on immobilised 3-AESA [3]: the ability of GAPA1 Trp319Leu to bind 3-AESA was not affected

NC(=O)C1=CN([C@@H]2O[C@H](COP(=O)(O)OP(=O)(O)OC[C@H]3O[C@@H](n4cnc5c(N)ncnc54)[C@H](O)[C@@H]3O)[C@@H](O)[C@H]2O)C=CC1 [NADH]
SPR competition with immobilised 3-AESA (competition seen from 2 μM NADH) [4]: pre-incubation of GAPA1 on ice with NADH reduced the level of GAPA1 association with immobilised 3-AESA

O=C(O)c1ccccc1O [SA, 2-hydroxybenzoic acid]
SPR competition with immobilised 3-AESA; also inhibits GAPDH activity of purifie [5]: GAPA1 association with immobilised 3-AESA was inhibited by the presence of SA in a running buffer in a concentration-dependent manner

Reference: PMC7370300, “Deciphering the Binding of Salicylic Acid to Arabidopsis thaliana Chloroplastic GAPDH-A1” (International Journal of Molecular Sciences, 2020)
